# Results as given in patent publication US10588839B2, “Method of shaping hair” (Conopco, Inc., priority 2013, dated 2020).
# Legend:
# [1] = Volume of hair switches by image analysis after soaking and combing, no heat treatment (Example 3); details: 30 min soak; for volume of treated hair switches: combed straight, dried; for % benefit: water as control
# Text: Control switches were soaked in water.
# When dry the switches were combed straight and pictures taken.
# [2] = Volume of hair switches by image analysis after soaking, ironing at 200° C. and washing (Example 1)
# Protocol: Dark brown wavy #6 European hair switches were soaked for 30 minutes in solutions of 2% glyceraldehyde at its natural or spontaneous pH.
# All switches were combed straight and were dried in drying cabinets. When dry the switches were ironed with 7 passes using straighteners at 200° C.
# The switches were subsequently washed after 3 days with base shampoo and combed straight and dried in drying cabinets.
# When dry the switches were combed and pictures taken. The volumes of the switches were measured using an image analysis kit.
# If the switches are visually straight then the volume of the switches (actually the projection of the volume in mm^2 on to an image plane) is a measure of the straightness benefits of the treatment.
SMILES,volume of treated hair switches [1],% benefit [1],"% benefit after ironing + 1 wash ([2]; 2% glyceraldehyde solution, 30 min soak, 7 iron passes at 200° C., 1 wash, versus control)","% benefit after ironing + 2 washes ([2]; 2% glyceraldehyde solution, 30 min soak, 7 iron passes at 200° C., 2 washes, versus control)","Volume of treated hair switches after ironing + 2 washes ([2]; 2% glyceraldehyde solution, 30 min soak, 7 iron passes at 200° C., 3 day gap between washings)","Volume of treated hair switches after ironing + 1 wash ([2]; 2% glyceraldehyde solution, 30 min soak, 7 iron passes at 200° C., washed after 3 days with base shampoo)","straightness benefit (in words) ([2]; with heat treatment, after washing)"
"NCCCC[C@H](N)C(=O)O [2% Lysine, lysine]",9975 mm^2,37.2%,–,–,–,–,–
"O=CC(O)CO (stereo not drawn) [Glyceraldehyde, glyceraldehyde]",12458 mm^2,21.6%,26.4%,11.3%,11191.17 mm^2,10927.15 mm^2,durable straightness benefits
